Series [1] in a line: stability of the free dihydroxy acid on standing. It counts as physicochemical. Particulars: on standing at room temperature; acid form can be maintained by increasing the pH above 7.0. As for the experimental part: The sodium salt of the compound II from Example 4 is dissolved in 2 ml of ethanol-water (1:1; v:v) and added to 10 ml of 1N hydrochloric acid from which the dihydroxy acid is extracted with ethyl acetate. The organic extract is washed once with water, dried (Na2 SO4), and evaporated in vacuo with a bath temperature not exceeding 30° C. […] The dihydroxy acid form can be maintained by increasing the pH above 7.0.

A further series has as its target T1, HMG--CoA reductase (Rattus norvegicus, UniProt P51639).
T1 construct: from tissue
T1 sequence (P51639 1-887): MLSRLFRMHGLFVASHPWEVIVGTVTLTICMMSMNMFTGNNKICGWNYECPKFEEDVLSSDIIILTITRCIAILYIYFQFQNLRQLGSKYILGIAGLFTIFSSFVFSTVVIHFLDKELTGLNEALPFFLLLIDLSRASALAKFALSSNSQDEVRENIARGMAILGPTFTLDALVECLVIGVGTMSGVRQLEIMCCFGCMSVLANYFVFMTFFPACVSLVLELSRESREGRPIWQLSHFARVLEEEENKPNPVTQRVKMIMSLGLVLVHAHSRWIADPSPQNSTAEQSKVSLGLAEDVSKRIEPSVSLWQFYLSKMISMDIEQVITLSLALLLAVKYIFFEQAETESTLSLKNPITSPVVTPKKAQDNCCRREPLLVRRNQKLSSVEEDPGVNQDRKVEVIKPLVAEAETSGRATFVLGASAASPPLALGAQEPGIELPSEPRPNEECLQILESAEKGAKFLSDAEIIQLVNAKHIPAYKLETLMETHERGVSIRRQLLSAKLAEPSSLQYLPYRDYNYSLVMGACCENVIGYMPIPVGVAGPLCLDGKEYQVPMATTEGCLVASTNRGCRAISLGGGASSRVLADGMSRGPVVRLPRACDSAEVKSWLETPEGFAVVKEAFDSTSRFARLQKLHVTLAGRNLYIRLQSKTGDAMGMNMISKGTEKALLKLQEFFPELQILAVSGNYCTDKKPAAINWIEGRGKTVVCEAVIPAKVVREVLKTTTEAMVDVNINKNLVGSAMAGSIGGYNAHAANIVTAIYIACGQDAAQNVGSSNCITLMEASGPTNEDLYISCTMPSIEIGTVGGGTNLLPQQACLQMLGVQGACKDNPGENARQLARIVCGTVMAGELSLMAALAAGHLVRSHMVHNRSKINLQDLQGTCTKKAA
Put plainly: intrinsic HMG-CoA reductase inhibition, in vitro protocol after alkaline hydrolysis of the lactone ring. Format: biochemical. Conditions: relative inhibitory potency from IC50 values; lactone ring opened by alkaline hydrolysis; lovastatin (hydroxy acid form) assigned 100. How it is done: After alkaline hydrolysis of the lactone ring the intrinsic HMG--CoA reductase inhibition activity was measured in an vitro protocol based on a method published in Proc. Natl. Acad. Sci. U.S.A. 77, 3957-3961 (1980).
The IC50 value of the test compound was compared with that of its parent determined simultaneously. For estimation of relative inhibitory potencies, lovastatin (in the form of its hydroxy acid) was assigned a value of 100.

Series [2] in a line: incubation of 14C-labelled compound with rat liver microsomes, HPLC analysis of the label. It counts as in vitro ADME. Conditions: rat liver microsomes with NADPH and MgCl2, pH 7.4, 37°. How it is done:
Rat liver tissue (55.6 g) was homogenized in 0.05M Tris -1.15% KCl buffer at pH 7.5 (100 ml). The homogenates were centrifuged at 10,000 RPM for 20 '. The supernatants were filtered through glass wool and then centrifuged as 100,000 g for 90'. After the supernatant was discarded the pellet was suspended in 10 mM EDTA -1.15% KCl (100 ml) and recentrifuged at 100,000 g for 90 minutes. The supernatant was discarded and the pellet was resuspended in 0.25M sucrose (15 ml). Microsomes were stored at -80° under N2. Protein concentration (as determined by Biuret reaction) was 40 mg/ml of final suspension.
[^14 C] 6(R)-[2-[8(S)-(2,2-dimethylbutyryloxy)-2(S)-methyl-5(R)-hydroxy-6(S)-methyl-1,2,3,4, 4a(R),5,6,7,8,Sa(R)-decahydronaphthyl-1(S)]ethyl]-4(R)-hydroxy-3,4,5,6,-tetrahydro-2H-pyran-2-one (compound A)(40 μg) in 20 λ of DMSO was placed in a tube with rat liver microsomes (1 mg in 100 μl of broth) Mg Cl2 (30 μl of a 0.1M solution), NADPH (50 μl of a 0.01M solution) and phosphate buffer (100 λ of a.1M solution, pH 7.4).
Twenty five such tubes were incubated at 37° in a water bath, for 30 minutes. Acetone (1 ml) was added to each tube, followed by ethyl acetate (5 ml). The ethyl acetate was evaporated and the residue was reconstituted in methanol and fractionated by HPLC. […]
On the technique in general: Liver microsomes are vesicles of endoplasmic reticulum, rich in cytochrome P450 enzymes.

Regarding `CCC(C)(C)C(=O)O[C@H]1C[C@](C)(O)[C@@H](O)[C@@H]2CC[C@H](C)[C@H](CC[C@@H](O)C[C@@H](O)CC(=O)O)[C@H]21` [Example 10], the “stability of dihydroxy acid form (reversion to lactone)” value in series [1] was “slowly reverts to the corresponding parent lactone”.
Turning to `CCC(C)(C)C(=O)O[C@H]1C[C@](C)(O)[C@@H](O)[C@@H]2CC[C@H](C)[C@H](CC[C@@H]3C[C@@H](O)CC(=O)O3)[C@H]21` [6(R)-[2-[8(S)-(2,2-dimethylbutyryloxy)-2(S)-methyl-5(S),6(S)-dihydroxy-6(S)-methyl-1,2,3,4, 4a (R),5,6,7,8,8a (R)-decahydronaphthyl-1(S)]ethyl]-4(R)-hydroxy-3,4,5,6-tetrahydro-2H-pyran-2-one], the “Potency (Relative to Lovastatin = 100)” value at HMG--CoA reductase is on record as 40.
Regarding `CCC(C)(C)C(=O)O[C@H]1C[C@@H](C)[C@@H](O)[C@@H]2CC[C@H](C)[C@H](CC[C@@H]3C[C@@H](O)CC(=O)O3)[C@H]21` [compound A, 6(R)-[2-[8(S)-(2,2-dimethylbutyryloxy)-2(S)-methyl-5(R)-hydroxy-6(S)-methyl-1,2,3,4, 4a(R),5,6,7,8,Sa(R)-decahydronaphthyl-1(S)]ethyl]-4(R)-hydroxy-3,4,5,6,-tetrahydro-2H-pyran-2-one], the remaining at 0.5 h in series [2] (30 minutes, ethyl acetate extract, read-out: label representing unchanged starting material) is 52%.
With `CCC(C)(C)C(=O)O[C@H]1C[C@](C)(O)C[C@@H]2CC[C@H](C)[C@H](CC[C@@H]3C[C@@H](O)CC(=O)O3)[C@H]21` [6(R)-[2-[8(S)-(2,2-dimethylbutyryloxy)-2(S),6(R)-dimethyl-6(R)-hydroxy-1,2,3,4,4a (R),5,6,7,8,8a (R)-decahydronaphthyl-1(S)]ethyl]-4(R)-hydroxy-3,4,5,6-tetrahydro-2H-pyran-2-one], the “Potency (Relative to Lovastatin = 100)” value on HMG--CoA reductase worked out at 2.
`CCC(C)(C)C(=O)O[C@H]1C[C@@H](C)C[C@@H]2CC[C@H](C)[C@H](CC[C@@H]3C[C@@H](O)CC(=O)O3)[C@H]21` [compound B, 6(R)-[2-[8(S)-(2,2-dimethylbutyryloxy)-2(S),6(R)-dimethyl-1,2,3,4,4a(R),5,6,7,8, 8a(R)-decahydronaphthyl-1(S)]ethyl]-4(R)-hydroxy-3,4,5,6-tetrahydro-2H-pyran-2-one]: in series [2] (60 minutes, methyl-t.butyl ether extract, read-out: label in the extract that was unchanged starting material), the remaining at 1 h was determined as 66%.

The values are drawn from patent US5385932A, “HMG-COA reductase inhibitor metabolites” (Merck & Co., Inc., priority 1992, dated 1995).
